Patent US7605149B1, “Modulation of the phospholipase A2 pathway as a therapeutic” (University of South Florida, priority 1998, dated 2009)
Where two headings read alike, the source gives them in different places.

What was measured:
[1] = system: rat aortae (aortic rings); test: Vessel bath vasoactivity assay: ET-1-induced vasoconstriction of rat aortic rings and its enhancement by Aβ or sPLA2; assay type: cell-based; conditions: for effect on sPLA2-induced vasoconstriction: inactivation of sPLA2
Protocol: Vessel experiments. Freshly dissected aortae were prepared from normal male Sprague-Dawley rats (7-8 months old, purchased from Zivic Miller, Zelienople, Pa.) as previously described by Paris et al, Exp Neurol 1998 and Exp Neurol 1999. Rat aortae were segmented into rings and suspended in Kreb's buffer on hooks connected to a tensiometer linked to a MacLab system. Aortic rings were equilibrated for 2 hours, in 7 mL tissue baths containing Kreb's buffer oxygenated with 95% O2: 5% CO2, and thermoregulated to 37° C. A baseline tension of 2 g was applied to each ring, and the first set of aortic rings was pretreated with the various compounds named above either alone or in combination with Aβ peptides. After 5 minutes of incubation in the presence or absence of Aβ, this first set of vessels was subjected to a dose range of ET-1 (from 1 nM to 5 nM). A second set of vessels was treated with 1 μM of Aβ peptides prior to the addition of ET-1. A third set (control) received only ET-1 treatment. Each ET-1 dose was added only after the constriction response to the previous dose had reached a plateau. In all cases the means ±1 standard error (SE) of the percentage vasoconstriction increase over baseline were determined for each dose of ET-1 used.
(§1) Statistical analysis. Analysis of variance (ANOVA) was used to analyze the data, with post-hoc comparisons of means carried out where appropriate by Sheffe's or Bonferonni's methods. As previously described (Paris et al., Neurosci Lett, 1998), a significant interactive term by ANOVA was taken as evidence that both drug x and Aβ are modulating a common signal transduction pathway. […] Levene's test for equality of variance followed by t-test for independent samples was used for single mean comparisons. Alpha levels were set at 0.05 for all analyses. Analyses were performed using SPSS for Windows release 9.5.

[2] = system: intact rat aortae (aortic rings); test: [3H]AA release in intact rat aortae; assay type: cell-based
Protocol: Measurement of [^3H]AA release in intact rat aortae. Aortic rings (1.5 mm long) were placed in 1 mL of physiological saline solution (PSS, containing 130 mM NaCl, 5 mM KCl, 1.5 mM CaCl2, 1.2 mM MgCl2, 10 mM HEPES, and 10 mM glucose adjusted to pH 7.2 with NaOH) and incubated with 2.5 μCi of [^3H]AA (specific activity of 91.8 Ci/mmol) for 24 h at 4° C. Rat aortae were subsequently washed in 50 mL of Kreb's buffer and then subjected to the vasoactivity assay. Initial background [^3H]AA release was determined following 30 min of equillibration for each aortic ring prior to treatment by removing 200 μL of Kreb's buffer (total volume of 7 mL each) from each bath, and measuring radioactivity (in cpm) after the addition of 1 mL of scintillant (EcoLume, ICN Inc., Calif.) using a liquid scintillation counter (1209 Rackbeta, WALLAC Inc., Md.). Subsequently, aortic rings were treated with sPLA2 alone or Aβ1-40 (1 μM) in the presence or absence of a MEK1/2 inhibitor (PD 98059) or a cPLA2 inhibitor (AACOCF3) for 5 min, or went untreated for the same length of time (control). Quantification of [^3H]AA release was then preformed as described above. All aortic rings were then subjected to a dose range of ET-1 (1, 2.5, and 5 nM), and radioactivity was measured 5 min after the first dose of ET-1 (1 nM), and 20 min after the second (2.5 nM) and third (5 nM) doses of ET-1. Radioactivity incorporated into each ring was determined by placing the aortic ring in 1 mL of scintillant and assaying as described above. Results are expressed as the means ±1 SE of the percentage of [^3H]AA incorporated for each aortic ring [([^3H]AA released—[^3H]AA initial background)/incorporated [^3H]AA].
as §1

[3] = system: N9 microglial cells; test: Leukotriene B4 (LTB4) ELISA on microglial cell supernatants; assay type: cell-based, murine; conditions: 18 hours, FIG. 23
Protocol: Leukotriene -B4 (LTB4) enzyme-linked immunoabsorbant assay (ELISA). Quantitative determination of LTB4 levels was made using a competitive binding ELISA (R&D Systems, Minneapolis, Minn.) designed to measure LTB4 in cell culture supernatants (as described in Paris et al., Exp Neurol 1999). A murine microglial cell line (N9) was provided by Dr. Paola Ricciardi-Castagnoli (Cellular Pharmacology Center, Milan, Italy) and were grown in RPMI medium supplemented with five percent fetal calf serum, 2 mM glutamine, 100 U/mL penicillin, […] streptomycin and 0.05 mM 2-mercaptoethanol. Microglial cells were seeded at 50,000 cells/well in 6-well plates (Falcon, France) and treated with Aβ1-40 (500 nM), drugs which oppose the PLA2/AA/5-LOX/COX-2 pathway, or untreated (control) and incubated for 18 hours. Cell supernatants were then collected and diluted 10-fold in assay buffer. 50 μL of diluted samples were then used in the assay, and each sample was assayed in duplicate. Manipulations were performed in accordance with the manufacturer's instruction. A spectramax 250 spectrophotometer (Molecular Devices, San Diego, USA) was used to measure absorbance at 405 nm and a standard curve was plotted using a 4-parameter model.
as §1

[4] = system: rat aortae (aortic rings); conditions: cited from earlier work
[5] = 1 μM with 1 μM Aβ1-40, 5 minutes prior to ET-1, FIGS. 7, 9, 10, 12
[6] = 5 μM with 1 μM Aβ1-40, FIGS. 11, 19
[7] = 25 μM with 1 μM Aβ1-40, FIGS. 5, 16

Which “effect on sPLA2-induced vasoconstriction” value ([1]; concentration not given) does the source give for O[C@@H](CS)[C@@H](O)CS (racemic) [dithiothreithol] here?
Its value is “inhibition of sPLA2-induced vasoconstriction”.

With CCCCC/C=C\C/C=C\C/C=C\C/C=C\CCCC(=O)O [AA, Arachidonic acid] as the molecule, how does the “effect on ET-1-induced vasoconstriction” value ([1]; concentration not given) read?
Its value is “can enhance ET-1-induced constriction”.

Which “effect on Aβ-induced [3H]AA release from aortic rings” value ([2]; 1 μM with Aβ1-40 1 μM, FIG. 21) does the source give for CCCCC/C=C\C/C=C\C/C=C\C/C=C\CCCC(=O)C(F)(F)F [AACOCF3] here?
Its value is “inhibited”.

Which “effect on Aβ vasoactivity (Aβ1-40 enhancement of ET-1-induced vasoconstriction)” value [1, 5] does the source give for O=C1O/C(=C/Br)CCC1c1cccc2ccccc12 (centres unmarked) [HELSS, haloenol lactone suicide substrate] here?
The value was “unable to affect Aβ-induced vasoactivity”.

Which “effect on Aβ vasoactivity (Aβ1-40 enhancement of ET-1-induced vasoconstriction)” value [1, 5] does the source give for CC(C)c1ccc2c(c1)c(SC(C)(C)C)c(CC(C)(C)C(=O)O)n2Cc1ccc(Cl)cc1 [MK-886] here?
Its value is “markedly inhibits Aβ vasoactivity”.

For CC[C@H](C)[C@H](NC(=O)CN)C(=O)NCC(=O)N[C@@H](C)C(=O)N[C@H](C(=O)N[C@@H](CC(C)C)C(=O)N[C@@H](CCCCN)C(=O)N[C@H](C(=O)N[C@@H](CC(C)C)C(=O)N[C@H](C(=O)N[C@H](C(=O)NCC(=O)N[C@@H](CC(C)C)C(=O)N1CCC[C@H]1C(=O)N[C@@H](C)C(=O)N[C@@H](CC(C)C)C(=O)N[C@H](C(=O)N[C@@H](CO)C(=O)N[C@@H](Cc1c[nH]c2ccccc12)C(=O)N[C@H](C(=O)N[C@@H](CCCCN)C(=O)N[C@@H](CCCNC(=N)N)C(=O)N[C@@H](CCCCN)C(=O)N[C@@H](CCCNC(=N)N)C(=O)N[C@@H](CCC(N)=O)C(=O)N[C@@H](CCC(N)=O)C(N)=O)[C@@H](C)CC)[C@@H](C)CC)[C@@H](C)O)[C@@H](C)O)C(C)C)C(C)C [Melittin], which “effect on ET-1-induced vasoconstriction” value ([1]; 1 μM, 5 minutes prior to ET-1 dose range (1-5 nM), FIG. 3) is on record?
The value was “potentiate ET-1-induced vasoconstriction to a similar extent as Aβ”.

With CS(=O)(=O)Nc1ccc([N+](=O)[O-])cc1OC1CCCCC1 [NS-398] as the molecule, how does the “effect on Aβ vasoactivity (Aβ1-40 enhancement of ET-1-induced vasoconstriction)” value [1, 6] read?
Its value is “able to block Aβ vasoactivity”.

And the “effect on Aβ-induced microglial LTB4 release” value ([3]; 50 μM with Aβ1-40 500 nM)?
Its value is “complete blockade of LTB4 release”.

For COc1cccc(-c2cc(=O)c3ccccc3o2)c1N [PD 98059], which “effect on Aβ vasoactivity (Aβ1-40 enhancement of ET-1-induced vasoconstriction)” value [1, 7] is on record?
Its value is “complete blockade”.

And the “effect on Aβ1-42 vasoactivity” value ([1]; 25 μM with 1 μM Aβ1-42, FIG. 17)?
The value was “complete blockade”.

And the “effect on sPLA2 enhancement of ET-1-induced vasoconstriction” value ([1]; 25 μM with 2.5 U/mL sPLA2, FIG. 18)?
Its value is “completely inhibit sPLA2 enhancement of ET-1-induced vasoconstriction”.

And the “effect on Aβ-induced microglial LTB4 release” value ([3]; 25 μM with Aβ1-40 500 nM)?
Its value is “complete blockade of Aβ-induced microglial LTB4 release”.

What about the “effect on Aβ-induced [3H]AA release from aortic rings” value ([2]; 25 μM with Aβ1-40 1 μM, FIG. 22) of the same molecule?
The value was “blocked”.

For O=c1c(O)c(-c2ccc(O)c(O)c2)oc2cc(O)cc(O)c12 [Quercetin, quercetin], which “effect on Aβ vasoactivity (Aβ1-40 enhancement of ET-1-induced vasoconstriction)” value ([1]; 10 μM with 1 μM Aβ1-40, FIGS. 8, 14) is on record?
Its value is “unable to block Aβ vasoactivity”.

Which results are given for O=C(NCCCCCCNC(=O)ON=C1CCCCC1)ON=C1CCCCC1 [RHC-80267]?
effect on Aβ vasoactivity (Aβ1-40 enhancement of ET-1-induced vasoconstriction) ([1]; 8 μM with 1 μM Aβ1-40, FIG. 13): not able to modulate ET-1-induced vasoconstriction or to affect Aβ enhancement of ET-1-induced vasoconstriction; effect on ET-1-induced vasoconstriction ([1]; 8 μM, 5 minutes prior to ET-1 dose range, FIG. 13): not able to modulate ET-1-induced vasoconstriction

For Oc1ccc(-c2nc(-c3ccncc3)c(-c3ccc(F)cc3)[nH]2)cc1 [SB 202190], which “effect on Aβ vasoactivity (Aβ1-40 enhancement of ET-1-induced vasoconstriction)” value [1, 6] is on record?
The value was “complete inhibition of Aβ vasoactivity”.

And the “effect on Aβ-induced microglial LTB4 release” value ([3]; 5 μM with Aβ1-40 500 nM)?
Its value is “complete blockade of Aβ-induced microglial LTB4 release”.

For Nc1ncnc2c1ncn2C1CCCO1 (centres unmarked) [SQ-22536], which “effect on Aβ vasoactivity” value ([4]; adenylyl cyclase inhibitor, reference given) is on record?
Its value is “does not have any effect on the vasoactive properties of Aβ”.

With COc1cccc2c1cc([N+](=O)[O-])c1c(C(=O)O)cc3c(c12)OCO3 [aristolochic acid] as the molecule, how does the “effect on Aβ vasoactivity” value ([1]; high doses (25 μM)) read?
The value was “partial blockade of the vasoactive properties of Aβ”.

What about the “effect on Aβ vasoactivity” value ([1]; low doses (<10 μM)) of the same molecule?
Its value is “unable to affect Aβ vasoactivity”.

Which “effect on Aβ vasoactivity (Aβ1-40 enhancement of ET-1-induced vasoconstriction)” value ([1]; 1.5 μM with 1 μM Aβ1-40, FIG. 15) does the source give for CN(C)CCCn1cc(C2=C(c3c[nH]c4ccccc34)C(=O)NC2=O)c2ccccc21 [bisindolylmaleimide I] here?
The value was “reduction in Aβ vasoactivity was merely additive”.

And the “effect on ET-1-induced vasoconstriction” value ([1]; 1.5 μM, 5 minutes prior to ET-1 dose range, FIG. 15)?
The value was “statistically interactive reduction in ET-1-induced vasoconstriction”.

What does the source list for CCCCCCCC/C=C\CCCCCCCCOCCOP(=O)([O-])OCC[N+](C)(C)C [oleylox., oleyloxyethylphosphocholine]?
effect on Aβ vasoactivity (Aβ1-40 enhancement of ET-1-induced vasoconstriction) [1, 5]: completely blocks; effect on Aβ1-42 vasoactivity ([1]; 1 μM with Aβ1-42): completely blocks; effect on sPLA2-induced vasoconstriction ([1]; concentration not given): inhibition of sPLA2-induced vasoconstriction

Which “effect on Aβ vasoactivity” value ([1]; concentration not given) does the source give for CC(C)NCC(O)COc1cccc2ccccc12 (centres unmarked) [propanolol] here?
The value was “unable to block Aβ vasoactivity”.

What does the source list for “APP657-676: APP-derived peptide, a known stimulator of Go (EFRHDSGYEVHHQKLVFFAE; UniProt P05067 674-693, looked up, fragment)”?
effect on Aβ vasoactivity ([1]; concentration not given): not able to modulate ET-1-induced vasoconstriction or to affect Aβ-vasoactivity; effect on ET-1-induced vasoconstriction ([1]; concentration not given): not able to modulate ET-1-induced vasoconstriction

Which “magnitude of constriction induced by ET-1 in isolated mammalian vessels” value ([4]; freshly solubilized, previously shown (Crawford et al., 1998)) does the source give for “Aβ1-42: soluble β-amyloid peptide with forty-two amino acids, obtained from QCB” here?
The value was “increase the magnitude of constriction induced by ET-1”.

With diacylglycerol [DAG] as the molecule, how does the “effect on ET-1-induced vasoconstriction” value ([1]; 10 μM, 5 minutes prior to ET-1 dose range, FIG. 14) read?
The value was “able to potentiate ET-1-induced vasoconstriction”.

Which “effect on Aβ vasoactivity (Aβ1-40 enhancement of ET-1-induced vasoconstriction)” value [1, 7] does the source give for isotetrandrine here?
Its value is “partially blocked Aβ vasoactivity”.

Which “effect on ET-1-induced vasoconstriction” value ([1]; 5 μM, 5 minutes prior to ET-1 dose range, FIG. 4) does the source give for mastoparan here?
Its value is “potentiate ET-1-induced vasoconstriction to a similar extent as Aβ”.

For “p-aminophenyl-α-D-mannopyranoside-bovine serum albumin [mannose-BSA]”, which “effect on ET-1-induced vasoconstriction” value [1] is on record?
The value was “vasoactive to a similar extent as Aβ”.

For pertussis toxin, which “effect on Aβ vasoactivity” value ([1]; concentration not given) is on record?
The value was “insensitive”.
